According to article PMC3907537, “Evaluation of the Endothelin Receptor Antagonists Ambrisentan, Bosentan, Macitentan, and Sitaxsentan as Hepatobiliary Transporter Inhibitors and Substrates in Sandwich-Cultured Human Hepatocytes” (PLoS ONE, 2014):
“And” between values parts separate entries of the source, which are not always exact repeats. Equal entries are not always repeated.

How the values were obtained:
BCRP = biological target: T1, BCRP (Homo sapiens, UniProt Q9UNQ0); assay: BCRP inhibition in MDCKII-ABCG2 cells; format: cell-based; conditions: mean ± SD of 3 independent studies in duplicate, tested 0.14–100 µM
T1 construct: host or cells: MDCKII
T1 sequence (Q9UNQ0 1-655): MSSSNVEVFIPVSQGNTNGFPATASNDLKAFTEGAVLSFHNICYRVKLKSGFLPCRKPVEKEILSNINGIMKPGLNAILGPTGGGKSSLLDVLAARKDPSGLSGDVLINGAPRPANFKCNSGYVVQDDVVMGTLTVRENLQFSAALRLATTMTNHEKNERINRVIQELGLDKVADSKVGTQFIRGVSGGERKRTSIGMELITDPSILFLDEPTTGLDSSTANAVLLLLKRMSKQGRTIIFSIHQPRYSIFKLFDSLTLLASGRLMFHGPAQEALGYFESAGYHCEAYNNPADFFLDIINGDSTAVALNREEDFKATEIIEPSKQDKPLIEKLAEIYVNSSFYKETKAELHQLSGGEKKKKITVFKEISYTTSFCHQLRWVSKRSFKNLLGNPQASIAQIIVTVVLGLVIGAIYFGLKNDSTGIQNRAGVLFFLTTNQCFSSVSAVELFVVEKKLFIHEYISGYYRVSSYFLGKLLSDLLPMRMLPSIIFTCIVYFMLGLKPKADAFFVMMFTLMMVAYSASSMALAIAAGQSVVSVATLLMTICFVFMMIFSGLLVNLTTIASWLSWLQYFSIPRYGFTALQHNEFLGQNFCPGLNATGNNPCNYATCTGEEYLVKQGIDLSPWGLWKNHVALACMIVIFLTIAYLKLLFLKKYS
Source text: (§1) Chinese Hamster Ovary (CHO) cells were obtained from Professor B. Stieger’s laboratory at University of Zurich, Zurich, Switzerland. Madin-Darby Canine Kidney strain II (MDCKII) cells were obtained from Nederlands Kanker Instituut (NKI), Amsterdam, Netherlands. NTCP-CHO cells, BSEP and MRP2 membrane vesicles were developed and validated at Solvo Biotechnology, Budaors, Hungary.
MDCKII cells were maintained in DMEM with sodium pyruvate, Glutmax, 1% Penicillin/Streptomycin and 10% FBS in an incubator set at 37°C, 90% humidity and 5% CO2. MDCKII cells were seeded in 96-well black cell culture plates with clear bottoms at a density of 5×10^4 cells/well for Pgp and 2×10^4 cells/well for BCRP and grown to confluence. For the Pgp assay, test compounds were serially diluted in DMSO and then added into in cell culture medium (without FBS) containing 10 µM Calcein AM and incubated for 1 h. Following the removal of media containing Calcein AM and test compound, cells were washed five times with […] phosphate buffered saline containing magnesium and calcium (PBS). Wells were analyzed for Calcein AM fluorescence at an excitation of 494 nm and an emission of 517 nm. For the BCRP assay, test compounds were serially diluted DMSO and then spiked in cell culture medium (without FBS) containing 1 µM pheophorbide a (PhA) and incubated for 18 hours with MDCKII-ABCG2 cells. Following the removal of media containing PhA and test compound, cells were then washed five times with PBS. Wells were analyzed for PhA fluorescence at an excitation of 415 nm and an emission of 675 nm.
All assays were performed in duplicate. IC50 was defined as the test article concentration needed to inhibit the maximal transporter specific accumulation by 50%. IC50 values were calculated using non-linear fitting of % inhibition versus concentration to a sigmoidal curve with a variable Hill Coefficient using GraphPad Prism 5 (GraphPad Software Inc., San Diego, CA).

NTCP = biological target: T2, NTCP (Homo sapiens, UniProt Q14973); assay: NTCP inhibition, 3H taurocholate uptake in transfected CHO cells; format: cell-based; conditions: mean ± SD of 3 independent studies in duplicate, tested 0.14–100 µM
T2 construct: host or cells: CHO
T2 sequence (Q14973 1-349): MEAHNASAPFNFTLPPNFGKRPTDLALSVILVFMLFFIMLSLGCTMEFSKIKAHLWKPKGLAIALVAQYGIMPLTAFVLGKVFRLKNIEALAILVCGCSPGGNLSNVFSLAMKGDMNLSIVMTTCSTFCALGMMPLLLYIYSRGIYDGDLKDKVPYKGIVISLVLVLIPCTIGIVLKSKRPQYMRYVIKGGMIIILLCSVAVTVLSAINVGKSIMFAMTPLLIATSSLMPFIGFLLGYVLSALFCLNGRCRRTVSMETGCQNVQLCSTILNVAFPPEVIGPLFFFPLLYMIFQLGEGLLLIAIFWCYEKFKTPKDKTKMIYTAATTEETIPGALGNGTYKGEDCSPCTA
Source text: as §1
CHO cells, either wild type or transfected with the genes encoding human NTCP, OATP1B1 and OATP1B3, were maintained in Dulbecco’s Modification of Eagle’s Medium (DMEM) containing 1,000 mg/L D-glucose, L-glutamine, 25 mM HEPES buffer, 110 mg/L sodium pyruvate, 1% Penicillin/Streptomycin, 10% fetal bovine serum (FBS), 0.05 mg/mL L proline and 0.5 mg/mL of geneticin G-418. Cells were maintained in incubators set at 37°C, 90% humidity and 5% CO2. OATP1B1 and OATP1B3 over-expressing cells were seeded in BioCoat Poly-D-Lysine coated 96-well black cell culture plates with clear bottoms at a density of 1×10^5 cells/well. Sodium butyrate (10 mM) was added to the OATP1B1 and OATP1B3 cells once seeded to increase the protein expression level and the cells were grown to confluence overnight. The assay buffer contained 142 mM NaCl, 5 mM KCl, 1 mM KH2PO4, 1.2 mM MgSO4, 1.5 mM CaCl2, 5 mM Glucose and 12.5 mM HEPES (pH 7.4). After removal of the media and before adding test compounds, the cells were washed twice with 37°C assay buffer followed by a 0.5 h pre-incubation with assay buffer. […] Wells were analyzed for Fluo 3 fluorescence at an excitation of 485 nm and emission of 530 nm. Inhibition of NTCP was studied using similar conditions to those described for OATP1B1 and OATP1B3 except that inhibition of the uptake ^3H taurocholate into transfected CHO cells was monitored using radioactive scintillation counting.
All assays were performed in duplicate. […] IC50 values were calculated using non-linear fitting of % inhibition versus concentration to a sigmoidal curve with a variable Hill Coefficient using GraphPad Prism 5 (GraphPad Software Inc., San Diego, CA).

IC50 (BCRP) [µM]	IC50 (NTCP)	SMILES
75 ± 37	10 µM and 9.8 µM	CCCNS(=O)(=O)Nc1ncnc(OCCOc2ncc(Br)cn2)c1-c1ccc(Br)cc1 [macitentan]
> 100	> 100 µM	COC(c1ccccc1)(c1ccccc1)[C@H](Oc1nc(C)cc(C)n1)C(=O)O [ambrisentan]
> 100	36 µM and 35.6 µM	COc1ccccc1Oc1c(NS(=O)(=O)c2ccc(C(C)(C)C)cc2)nc(-c2ncccn2)nc1OCCO [bosentan]
